The test system of this assay is Meloidogyne sp. The assay can be described thus: Nematocidal activity against Meloidogyne sp. on potted cucumber/tomato plants in greenhouse (soil treatment). It counts as in vivo. As to conditions: for GALL INDEX (scale 0-10) / FRESH WEIGHT OF PLANT: cucumber cv Chinese Long; for GALL INDEX (scale 0-10): dose applied 2 kg/hectare (2000 g/hectare), survey 30 days after transplantation, Bridge-Page scale, 0 = 0% of root affected, 10 = 100% infested root; for FRESH WEIGHT OF PLANT: dose applied 2 kg/hectare, healthy blank 23 g, infested blank 3.5 g; for FRESH WEIGHT OF PLANT / effectiveness with respect to the reference products (CR1, CR2), in words: 30 days after transplantation; for effectiveness with respect to the reference products (CR1, CR2), in words: Table 6, cucumber, 2 kg/hectare. On the procedure: sDetermination of the Nematocidal Activity Against Meloidogyne sp.
The tests aimed at testing the nematicidal activity of the product under examination were carried out using inoculae taken from a farming of Meloidogyne sp. maintained on potted tomato and cucumber plants and grown in greenhouses.
To carry out the experiments, portions of roots having a good number of galls and soil were taken from the infested pots, in which larvae were present starting from the second stage of age.
New pots having a diameter of 15 cm were half filled with sterile soil. The portions of infested roots, previously cleaned, were placed on the same in order to be able to correctly assess the degree of infestation and ensure that each pot contains the same nematic charge. 200-300 g of infested soil were subsequently added, then covered with a thin layer of sterile soil.
The treatment was carried out by pouring 100 ml of solution on the surface of the soil, in which the product to be tested was dissolved.
Tomato or cucumber seedlings at the stage of two or three true leaves were transplanted in the pots thus prepared, one or seven days after application. Different cultivars of tomato or cucumber were used, having a different sensitivity to the parasite and different growth times. In particular, a variety of ornamental tomatoes (cv Microtom), whose seedlings are small in size and are able to reach the ripeness of the fruit in pots and under greenhouse conditions in about two months, was used for assessing the final production.
The containment capacity of the parasite was detected, 30 and 60 days after transplantation, considering the development of the root system (where 100% is the development reached by the healthy comparative root), the fresh weight of the plants treated expressed in grams, and the presence of galls on the roots. The latter was estimated using the infestation scale proposed by Bridge-Page, according to which the value zero corresponds to 0% of the root affected and the value 10 corresponds to 100% of infested root.
Table 6 indicates the results relating to the effectiveness on cucumbers, cv Chinese Long, treating with Compounds Nr. 23, 620, 1, 13, 5, 15, 16, 624 and 625 included in general formula (I) and the reference compounds CR1=Fluensulfone and CR2, described in JP 2000038379, instead of the compound having general formula (I), at a dose of 2000 g/hectare and effecting the survey 30 days after transplantation.

This note sets out measurements from patent publication US20220204540A1, “ESTERS OF NON- AROMATIC HETEROCYCLIC COMPOUNDS HAVING A NEMATOCIDAL ACTIVITY, THEIR AGRONOMIC COMPOSITIONS AND USE THEREOF” (ISAGRO S.p.A., priority 2019, published 2022).

Take `O=S(=O)(CCC(F)=C(F)F)c1ncc(Cl)s1` [CR1, 5-chloro-2-(3,4,4-trifluoro-3-butenylsulfonyl)-thiazole, reference compound]: the “GALL INDEX (scale 0-10)” value came out at 2 and the “FRESH WEIGHT OF PLANT” value is given as 5.5 g.

Take `O=C(OCCC(F)=C(F)F)c1cccnc1` [CR2, pyridyl-3-carboxylate of 3,4,4-trifluoro-3-butenyl, reference compound]: the “GALL INDEX (scale 0-10)” value amounted to 2.9 and the “FRESH WEIGHT OF PLANT” value was 17.5 g.

Consider `CC(=O)N1C(C(=O)OCCC(F)=C(F)F)COC1(C)C(F)(F)F` (stereo not shown) [Compound 16, (N-acetyl-2-trifluoromethyl-2-methyl)-1,3-oxazolidine-4-carboxylate of 3,4,4-trifluoro-3-butenyl], for which the “effectiveness with respect to the reference products (CR1, CR2), in words” value (shortened to “effectiveness”) was “comparable or greater effectiveness”; the “GALL INDEX (scale 0-10)” value was determined as 2.9; the “FRESH WEIGHT OF PLANT” value was determined as 18 g.

Regarding `CC(=O)N1CCC[C@H]1C(=O)OCCC(F)=C(F)F` [Compound 624, N-acetyl-L-proline 3,4,4-trifluorobut-3-en-1-yl ester], the “effectiveness” value is “comparable or greater effectiveness”; the “GALL INDEX (scale 0-10)” value amounted to 1.5; the “FRESH WEIGHT OF PLANT” value came out at 21 g.

Consider `O=C(OCCC(F)=C(F)F)[C@@H]1CCCN1C(=O)C(F)(F)F` [Compound 625, N-trifluoroacetyl-L-proline 3,4,4-triflluorobut-3-en-1-yl ester], for which the “effectiveness” value is “comparable or greater effectiveness”; the “GALL INDEX (scale 0-10)” value is listed as 2.5; the “FRESH WEIGHT OF PLANT” value came out at 22 g.

As to “N-acetyl-1,3-thiadiazolidine-4-carboxylate of 3,4,4-trifluoro-3-butenyl [Compound 23]”, the “effectiveness” value is “comparable or greater effectiveness”; the “GALL INDEX (scale 0-10)” value was found to be 2; the “FRESH WEIGHT OF PLANT” value came out at 23 g.
